# Data published in patent publication US12115147B2, “Formulations and methods related to eye irritation” (Lebrun Labs LLC, priority 2020, dated 2024).
# Like-named read-outs stand apart in the source and are kept apart here.
# Key:
# [1] = OS2 (OPTISAFE2), OPTISAFE formulation with antioxidants; conditions: for OS2 Cons: majority prediction of the triplicate assays; for 0S2 R1 / OS2 R1: repeat 1, with antioxidants; for 0S2 R1 / OS2 R3 / OS2 R1: predicted GHS class; for OS2 R3: repeat 3, with antioxidants
# rabbit eye = conditions: cited from earlier work
# [2] = pH 6.36
# [3] = no antioxidants, predicted GHS class, cited from earlier work
# [4] = OPTISAFE in vitro ocular irritation test, original formulation without antioxidants; conditions: for OPTISAFE (no antioxidant) Score AVG: ROS/CL chemicals; for OPTISAFE (no antioxidant) Score AVG / OPTISAFE Score AVG: triplicate assays; for OPTISAFE Score AVG: original formulation without antioxidants
# Experimental: Surfactants were diluted.
# Next a study was conducted to determine if the addition of antioxidants changes the reliability (repeatability) of the test method. After this, a large study determined if antioxidants specifically reduce the false positive rate without impacting the true positive rate and the true negative rate and then all prior test chemicals were rested with antioxidants in triplicate.
# [5] = Table 7B, based on the Draize data
# [6] = Table 7B, consensus of past application domain study
# [7] = Table 7A, based on the Draize data
# [8] = Table 7A, consensus of past transferability study
molecule,measurement,setting,value
O=P(O)(OCc1ccccc1)OCc1ccccc1 [Dibenzyl phosphate],OS2 Cons,[1]; Table 7A,1
same,0S2 R1,[1]; Table 7A,1
same,OS2 R3,[1]; Table 7A,1
"S=C([S-])NCCNC(=S)[S-].[Mn+2] [Maneb (solid), Maneb]",In vivo GHS,"rabbit eye; rabbit, in vivo",2B (key: NC (not classified as an irritant); 2A (reversal by 7 days); 2B (reversal by 14 days); 1 (no reversal by 21 days))
CCCCCCO [n-Hexanol],OS2 Cons,[2],2
same,OS2 R1,[2],2
same,OS2 R3,[2],1
same,In vivo GHS,rabbit eye; [5],2A (2A (reversal by 7 days))
same,OS Cons,[3]; [6],2
CCOCCOCC [Ethylene glycol diethyl ether],OPTISAFE (no antioxidant) Score AVG,[4],25.4 ± 1.8
same,OS2 (with antioxidant) Score AVG,[2],21.6 ± 2.5
same,OS2 Cons,[2],2
same,OS2 R1,[2],2
same,OS2 R3,[2],2
same,OS Cons,[3]; [6],2
"CC(O)CC(C)O (centres unmarked) [2,4-Pentanediol]",OPTISAFE Score AVG,[4],12.0 ± 1.4
same,OS2 Score AVG,[2],10.2 ± 0.7
same,OS2 score average,[2],9.5
same,OS2 scores ranged from,[2],7.8-10.9
same,Score = Average score,[2],9.5
CC(C)CO [Isobutanol],0S2 R1,[2],1
same,OS2 Cons,[2],1
same,OS2 R3,[2],1
same,In vivo GHS,rabbit eye; [7],2A (2A (reversal by 7 days))
same,OS Cons,[3]; [8],1
C=C1C2CCC(C2)C1(C)C (centres unmarked) [Camphene],0S2 R1,[2],2
same,OS2 Cons,[2],2
same,OS2 R3,[2],2
"CCC(O)C(C)(C)C (centres unmarked) [2,2-Dimethyl-3-pentanol]",OPTISAFE prediction without the antioxidant mixture,[4],overpredicted
same,OPTISAFE Score AVG,[4],19.2 ± 1.2
same,OS2 Score AVG,[2],15.1 ± 0.4
same,OS Cons,[3]; [8],2
OCc1cccc(Oc2ccccc2)c1 [3-Phenoxybenzyl alcohol],OS2 Cons,[2],2
same,OS2 R1,[2],2
same,OS2 R3,[2],2
same,OS Cons,[3]; [6],2
CC(C)(O)CCC(C)(C)O,OS2 Cons,[1]; Table 7B,1
same,OS2 R1,[1]; Table 7B,2
same,OS2 R3,[1]; Table 7B,1
CCCCCCCCCCCC(=O)O [Lauric acid],OS2 Cons,[2],1
same,OS2 R1,[2],1
same,OS2 R3,[2],1
same,In vivo GHS,rabbit eye; [5],1 (1 (no reversal by 21 days))
same,OS Cons,[3]; [6],1
CCCCCCCCCCCCCC(=O)OC(C)C [Isopropyl myristae],known ocular irritancy (FIG. 4 legend),"rabbit eye; rabbit, in vivo",Nonirritants
"CCN(CC)C(=O)c1cccc(C)c1 [n,n-Diethyl-m-toluamide]",In vivo GHS,rabbit eye; [5],2B (2B (reversal by 14 days))
same,known ocular irritancy (FIG. 4 legend),"rabbit eye; rabbit, in vivo",Irritants
same,OS Cons,[3]; [6],2
same,OS2 Cons,[1]; Table 7B,1
same,OS2 R1,[1]; Table 7B,1
same,OS2 R3,[1]; Table 7B,1
N#CCCCl [3-Chloropropionitrile],In vivo GHS,rabbit eye; [5],2B (2B (reversal by 14 days))
CCCCCCCCO [n-Octanol],OS2 Cons,[2],2
same,OS2 R1,[2],2
same,OS2 R3,[2],2
same,OS2 score average,[2],19.1
same,OS2 scores ranged from,[2],16.5-22.8
same,Score = Average score,[2],19.1
same,In vivo GHS,rabbit eye; [5],2A (2A (reversal by 7 days))
same,known ocular irritancy (FIG. 4 legend),"rabbit eye; rabbit, in vivo",Irritants
same,OS Cons,[3]; [6],2
C=C(C)C(=O)OCCOCC [2-Ethoxyethyl methacrylate],OPTISAFE (no antioxidant) Score AVG,[4],97.1 ± 18.2
same,OS2 (with antioxidant) Score AVG,[2],14.5 ± 2.7
same,OS2 Cons,[2],2
same,OS2 R1,[2],2
same,OS Cons,[3]; [6],1
O=C(Nc1ccc(Cl)cc1)Nc1ccc(Cl)c(Cl)c1 [Triclocarban],OS Cons,[3]; [6],CNM
same,OS2 Cons,[1]; Table 7B,CNM
same,OS2 R1,[1]; Table 7B,CNM
same,OS2 R3,[1]; Table 7B,CNM
"C=CCCCCCCC=C [1,9-Decadiene]",OPTISAFE (no antioxidant) Score AVG,[4],22.5 ± 3.6
same,OS2 (with antioxidant) Score AVG,[2],11.4 ± 6.4
same,OS Cons,[3]; [8],2
CC(C)C=O [Isobutyraldehyde],OS2 Cons,[2],1
same,OS2 R3,[2],1
same,In vivo GHS,"rabbit eye; rabbit, in vivo",2B (key: NC (not classified as an irritant); 2A (reversal by 7 days); 2B (reversal by 14 days); 1 (no reversal by 21 days))
CC(O)C(=O)O (centres unmarked) [Lactic Acid],In vivo GHS,"rabbit eye; rabbit, in vivo",1 (key: NC (not classified as an irritant); 2A (reversal by 7 days); 2B (reversal by 14 days); 1 (no reversal by 21 days))
Diethylaminopropionitrile,In vivo GHS,rabbit eye; [5],1 (1 (no reversal by 21 days))
same,OS Cons,[3]; [6],CNM
same,OS2 Cons,[1]; Table 7B,1
same,OS2 R1,[1]; Table 7B,2
same,OS2 R3,[1]; Table 7B,1
CCCOCC(C)O (centres unmarked) [Propasol solvent P],In vivo GHS,rabbit eye; [7],2A (2A (reversal by 7 days))
same,OS Cons,[3]; [8],2
same,OS2 Cons,[1]; Table 7A,2
same,0S2 R1,[1]; Table 7A,2
same,OS2 R3,[1]; Table 7A,2
CCCC(C)CO (centres unmarked) [2-Methyl-1-pentanol],0S2 R1,[2],2
same,OS2 Cons,[2],2
same,OS2 R3,[2],2
same,In vivo GHS,rabbit eye; [7],2B (2B (reversal by 14 days))
"O=C(O)CCSSCCC(=O)O [3,3-Dithiodipropionic acid]",OS2 Cons,[1]; Table 7A,1
same,0S2 R1,[1]; Table 7A,1
same,OS2 R3,[1]; Table 7A,1
CC(C=O)Cc1ccc(C(C)(C)C)cc1 (centres unmarked) [Protectol PP],OS2 Cons,[1]; Table 7B,1
same,OS2 R1,[1]; Table 7B,1
same,OS2 R3,[1]; Table 7B,1
CC(C)=O [Acetone],In vivo GHS,rabbit eye; [5],2A (2A (reversal by 7 days))
same,OS Cons,[3]; [6],2
same,OS2 Cons,[1]; Table 7B,2
same,OS2 R1,[1]; Table 7B,2
same,OS2 R3,[1]; Table 7B,2
CC(C)Br [iso-Propyl bromide],OPTISAFE prediction without the antioxidant mixture,[4],overpredicted
O=C([O-])CCl.[Na+] [Sodium chloroacetate],In vivo GHS,rabbit eye; [7],2B (2B (reversal by 14 days))
COC(=O)CC#N [Methyl cyanoacetate],0S2 R1,[2],1
same,OS2 Cons,[2],1
same,OS2 R3,[2],1
same,In vivo GHS,rabbit eye; [7],2A (2A (reversal by 7 days))
same,OS Cons,[3]; [8],1
CC(C)O [Isopropanol],OS2 Cons,[2],2
same,OS2 R1,[2],2
same,OS2 R3,[2],2
same,In vivo GHS,rabbit eye; [5],2A (2A (reversal by 7 days))
same,OS Cons,[3]; [6],2
Sodium lauroyl sarcosinate [Sodium lauroyl sarcosinate (10%)],"OS2 result, expanded surfactant study",[1]; due to assay inhibition,CNM
OC1CCCC1 [Cyclopentanol],OS2 Cons,[2],1
same,OS2 R1,[2],1
same,OS2 R3,[2],1
same,In vivo GHS,rabbit eye; [5],2A (2A (reversal by 7 days))
same,OS Cons,[3]; [6],1
CC(=O)CC(=O)OC(C)C [Isopropyl acetoacetate],OS2 Cons,[2],1
same,OS2 R1,[2],1
same,OS2 R3,[2],1
same,In vivo GHS,rabbit eye; [5],2B (2B (reversal by 14 days))
same,OS Cons,[3]; [6],1
OC1CCCCC1 [Cyclohexanol],in vivo GHS,"rabbit eye; Table 3, eye irritation class",1 (1 (no reversal by 21 days))
same,GHS,rabbit eye; Table 4,Cat. 1
same,In vivo GHS,rabbit eye; [5],1 (1 (no reversal by 21 days))
O=C1CCCO1 [gamma-Butyrolactone],In vivo GHS,rabbit eye; [5],2A (2A (reversal by 7 days))
same,OS Cons,[3]; [6],2
same,OS2 Cons,[1]; Table 7B,2
same,OS2 R1,[1]; Table 7B,2
same,OS2 R3,[1]; Table 7B,2
CCOC(=O)C(C)C(C)=O (centres unmarked) [Ethyl-2-methyl acetoacetate],In vivo GHS,rabbit eye; [5],2B (2B (reversal by 14 days))
same,OS Cons,[3]; [6],1
same,OS2 Cons,[1]; Table 7B,1
same,OS2 R1,[1]; Table 7B,1
same,OS2 R3,[1]; Table 7B,1
CCCCCCCCOCCCCCCCC [Dioctyl ether],known ocular irritancy (FIG. 4 legend),"rabbit eye; rabbit, in vivo",Nonirritants
CCCCCCCCCCCC [Dodecane],OPTISAFE Score AVG,[4],0.9 ± 0.8
same,OS2 Score AVG,[2],3.0 ± 2.6
CCCCCCBr [n-Hexyl bromide],known ocular irritancy (FIG. 4 legend),"rabbit eye; rabbit, in vivo",Nonirritants
"CCCCC(CC)COC(=O)CC(C(=O)OCC(CC)CCCC)S(=O)(=O)[O-].[Na+] (centres unmarked) [Butanedioic acid, sulfo-, 1,4-bis(2-ethylhexyl) ester, sodium salt]",OS2 Cons,[2],2
same,OS2 R1,[2],2
same,OS2 R3,[2],2
same,In vivo GHS,rabbit eye; [5],1 (1 (no reversal by 21 days))
same,OS Cons,[3]; [6],2
Cc1ccc(C=S)cc1 [p-Methyl thiobenzaldehyde],OS2 Cons,[2],1
same,OS2 R1,[2],1
same,OS2 R3,[2],1
same,OS Cons,[3]; [6],1
"O=C(Cl)c1c(Cl)cccc1Cl [2,6-Dichlorobenzoyl chloride]",OS2 Cons,[2],1
same,OS2 R1,[2],1
same,OS2 R3,[2],1
same,In vivo GHS,rabbit eye; [5],2A (2A (reversal by 7 days))
same,OS Cons,[3]; [6],1
O.O.O.O.[Na+].[O-]B1OO1 [Sodium perborate tetrahydrate],OS2 Cons,[1]; Table 7B,1
same,OS2 R1,[1]; Table 7B,1
same,OS2 R3,[1]; Table 7B,1
Cc1ncnc2nc[nH]c12 [6-Methyl purine],In vivo GHS,rabbit eye; [5],2B (2B (reversal by 14 days))
same,OS2 Cons,[1]; Table 7B,2/1
same,OS2 R1,[1]; Table 7B,2/1
same,OS2 R3,[1]; Table 7B,1
c1c[nH]cn1 [Imidazole],In vivo GHS,"rabbit eye; rabbit, in vivo",1 (key: NC (not classified as an irritant); 2A (reversal by 7 days); 2B (reversal by 14 days); 1 (no reversal by 21 days))
"O=C=Nc1ccc(Cl)c(Cl)c1 [3,4-Dichlorophenyl isocyanate]",In vivo GHS,rabbit eye; [7],1 (1 (no reversal by 21 days))
same,OS Cons,[3]; [8],1
same,OS2 Cons,[1]; Table 7A,1
same,0S2 R1,[1]; Table 7A,1
same,OS2 R3,[1]; Table 7A,1
COC(C)=O [Methyl acetate],OS2 Cons,[2],2
same,OS2 R1,[2],2
same,OS2 R3,[2],2
same,In vivo GHS,rabbit eye; [5],2A (2A (reversal by 7 days))
same,known ocular irritancy (FIG. 4 legend),"rabbit eye; rabbit, in vivo",Irritants
same,OS Cons,[3]; [6],2
CCCCC(CC)COC(=O)CS (centres unmarked),OPTISAFE prediction without the antioxidant mixture,[4],overpredicted
C=CCO [Allyl alcohol],In vivo GHS,rabbit eye; [5],2A (2A (reversal by 7 days))
same,OS Cons,[3]; [6],1
same,OS2 Cons,[1]; Table 7B,1
same,OS2 R1,[1]; Table 7B,1
same,OS2 R3,[1]; Table 7B,1
Nc1ncccc1O [2-Amino-3-pyridinol],In vivo GHS,rabbit eye; [5],2A (2A (reversal by 7 days))
same,OS Cons,[3]; [6],CNM
CCOC(C)=O [Ethyl acetate],OPTISAFE Score AVG,[4],23.9 ± 2.0
same,OS2 Cons,[2],2
same,OS2 R1,[2],2
same,OS2 R3,[2],2
same,OS2 Score AVG,[2],25.6 ± 2.4
